In BigSolDB 2.1:

C[C@@H]1O[C@@H](O[C@H]2[C@H](Oc3cc(O)c4c(c3)O[C@H](c3ccc(O)cc3)CC4=O)O[C@H](CO)[C@@H](O)[C@@H]2O)[C@H](O)[C@H](O)[C@H]1O
solubility (mole fraction)
Settings | 283.15 K | 288.15 K | 293.15 K | 298.15 K | 303.15 K | 308.15 K | 313.15 K | 318.15 K
in ethanol | 2.26e-05 | 2.57e-05 | 3.45e-05 | 4.05e-05 | 5.17e-05 | 6.25e-05 | 7.96e-05 | 0.000102
in water | 6.21e-07 | 7.14e-07 | 9.76e-07 | 2.87e-06 | 6.15e-06 | 1.1e-05 | 1.55e-05 | 2.32e-05
